Measurements published in paper PMC8445441, “Elucidating the mechanism by which synthetic helper peptides sensitize Pseudomonas aeruginosa to multiple antibiotics” (PLoS Pathogens, 2021).
Where two headings read alike, the source gives them in different places.

How the values were obtained:
P. aeruginosa HM-214 = settings: strain HM-214; antibiotic + D-11 (MICb/MICbc 128/4)
In short: (§1)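 After 18 h at 37 °C, the lowest concentration showing no visible growth was read as the MIC. Drugs were serially diluted two-fold in MHB and combined with an equal volume of inoculum (~1 × 10^6 CFU/mL), following CLSI broth microdilution; run in triplicate.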

P. aeruginosa AUMC-Pa-1 = settings: strain AUMC-Pa-1; antibiotic + D-11 (MICb/MICbc 128/4)
In short: as §1

P. aeruginosa AUMC-Pa-2 = settings: strain AUMC-Pa-2; antibiotic + D-11 (MICb/MICbc 64/4)
In short: as §1

P. aeruginosa AUMC-Pa-3 = experiment: microbe, parasite or virus in culture
In short: as §1

P. aeruginosa AUMC-Pa-6 = experiment: microbe, parasite or virus in culture; settings: strain AUMC-Pa-6
In short: as §1

P. aeruginosa PAO1 = experiment: microbe, parasite or virus in culture; settings: PAO1
In short: as §1

P. aeruginosa AUMC-Pa-5 = experiment: microbe, parasite or virus in culture; settings: strain AUMC-Pa-5
In short: as §1

P. aeruginosa AUMC-Pa-4 = experiment: microbe, parasite or virus in culture; settings: strain AUMC-Pa-4
In short: as §1

[1] = system: clinical P. aeruginosa isolates; experiment: microbe, parasite or virus in culture; settings: Pseudomonas aeruginosa, 18 h, antibiotic alone
In short: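 MIC is the lowest drug concentration showing no visible growth after 18 h at 37 °C. Two-fold dilutions in MHB were combined with an equal volume of bacterial suspension (about 1 × 10^6 CFU/mL), following CLSI broth microdilution, in triplicate.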

P. aeruginosa NR-31040 = experiment: microbe, parasite or virus in culture; parameters: MICa: MIC of the antibiotic / MICac: MIC of the antibiotic in the combination: unit not given beside the values; settings: strain NR-31040
In short: as §1

P. aeruginosa NR-31041 = experiment: microbe, parasite or virus in culture; parameters: MICa: MIC of the antibiotic / MICac: MIC of the antibiotic in the combination: unit not given beside the values
In short: as §1

P. aeruginosa ATCC27853 = experiment: microbe, parasite or virus in culture; parameters: MICa: MIC of the antibiotic / MICac: MIC of the antibiotic in the combination: unit not given beside the values
In short: as §1

P. aeruginosa PA14 = experiment: microbe, parasite or virus in culture; parameters: MICa: MIC of the antibiotic / MICac: MIC of the antibiotic in the combination: unit not given beside the values
In short: as §1

P. aeruginosa PAK = experiment: microbe, parasite or virus in culture; parameters: MICa: MIC of the antibiotic / MICac: MIC of the antibiotic in the combination: unit not given beside the values
In short: as §1

[2] = antibiotic + D-11 (MICb/MICbc 64/4)
[3] = antibiotic alone, unit not given
[4] = with D-11 at MICbc 4, unit not given
[5] = antibiotic + D-11 (MICb/MICbc 128/4)

CO[C@H]1/C=C/O[C@@]2(C)Oc3c(C)c(O)c4c(c3C2=O)C2=NC3(CCN(CC(C)C)CC3)NC2=C(NC(=O)/C(C)=C\C=C\[C@H](C)[C@H](O)[C@@H](C)[C@@H](O)[C@@H](C)[C@H](OC(C)=O)[C@@H]1C)C4=O [Rifabutin]
FICI (P. aeruginosa HM-214): 0.039 | FICI (P. aeruginosa AUMC-Pa-1): 0.039 | FICI (P. aeruginosa AUMC-Pa-2): 0.070 | MIC (P. aeruginosa AUMC-Pa-3; Pseudomonas aeruginosa, AUMCPA3, 18 h, read-out: MICa: MIC of the antibiotic): 16 µM | FICI (P. aeruginosa AUMC-Pa-3; strain AUMC-Pa-3, antibiotic + D-11 (MICb/MICbc 128/4)): 0.035 | MICac: MIC of the antibiotic in the combination (P. aeruginosa AUMC-Pa-3; strain AUMC-Pa-3, with D-11 at MICbc 4, unit not given): 0.063 | FICI (P. aeruginosa AUMC-Pa-6; [2]): 0.313 | MICa: MIC of the antibiotic (P. aeruginosa AUMC-Pa-6; [3]): 16 | MICac: MIC of the antibiotic in the combination (P. aeruginosa AUMC-Pa-6; [4]): 4 | MIC (P. aeruginosa PAO1; Pseudomonas aeruginosa, PAO1, 18 h, read-out: MICa: the MIC of antibiotics, S3 Table, antibiotic alone): 32 µM | FICI (P. aeruginosa PAO1; S3 Table, antibiotic + 2 μM D-11): 0.064 | FICI (P. aeruginosa PAO1; S3 Table, antibiotic + 4 μM D-11): 0.126 | MICac: the MIC for the antibiotic in the combination (P. aeruginosa PAO1; S3 Table, with 2 μM D-11): 0.0625 µM | MICac: the MIC for the antibiotic in the combination (P. aeruginosa PAO1; S3 Table, with 4 μM D-11): 0.03125 µM | MICa: the MIC of antibiotics (P. aeruginosa PAO1; S3 Table, antibiotic alone): 32 µM | FICI (P. aeruginosa AUMC-Pa-5; [2]): 0.313 | MICa: MIC of the antibiotic (P. aeruginosa AUMC-Pa-5; [3]): 32 | MICac: MIC of the antibiotic in the combination (P. aeruginosa AUMC-Pa-5; [4]): 8 | FICI (P. aeruginosa AUMC-Pa-4; [5]): 0.094 | MICa: MIC of the antibiotic (P. aeruginosa AUMC-Pa-4; [3]): 16 | MICac: MIC of the antibiotic in the combination (P. aeruginosa AUMC-Pa-4; [4]): 1 | MIC ([1]; read-out: Antibiotic sensibility (MIC) of clinical P. aeruginosa isolate AUMC-Pa-1, strain AUMC-Pa-1): 32 µM | MIC ([1]; read-out: Antibiotic sensibility (MIC) of clinical P. aeruginosa isolate AUMC-Pa-2, strain AUMC-Pa-2): 8 µM | MIC ([1]; read-out: Antibiotic sensibility (MIC) of clinical P. aeruginosa isolate AUMC-Pa-3, strain AUMC-Pa-3): 16 µM | MIC ([1]; read-out: Antibiotic sensibility (MIC) of clinical P. aeruginosa isolate AUMC-Pa-4, strain AUMC-Pa-4): 16 µM | MIC ([1]; read-out: Antibiotic sensibility (MIC) of clinical P. aeruginosa isolate AUMC-Pa-5, strain AUMC-Pa-5): 32 µM | MIC ([1]; read-out: Antibiotic sensibility (MIC) of clinical P. aeruginosa isolate AUMC-Pa-6, strain AUMC-Pa-6): 16 µM | MIC ([1]; read-out: Antibiotic sensibility (MIC) of clinical P. aeruginosa isolate HM-214, strain HM-214): 32 µM | MIC ([1]; read-out: Antibiotic sensibility (MIC) of clinical P. aeruginosa isolate NR-31040, strain NR-31040): 32 µM | MIC ([1]; read-out: Antibiotic sensibility (MIC) of clinical P. aeruginosa isolate NR-31041, strain NR-31041): 32 µM | FICI (P. aeruginosa NR-31040; [5]): 0.094 | MICa: MIC of the antibiotic (P. aeruginosa NR-31040; [3]): 32 | MICac: MIC of the antibiotic in the combination (P. aeruginosa NR-31040; [4]): 2 | MIC (P. aeruginosa NR-31041; Pseudomonas aeruginosa, NR31041, 18 h, read-out: MICa: MIC of the antibiotic): 32 µM | FICI (P. aeruginosa NR-31041; strain NR-31041, antibiotic + D-11 (MICb/MICbc 64/4)): 0.070 | MICac: MIC of the antibiotic in the combination (P. aeruginosa NR-31041; strain NR-31041, with D-11 at MICbc 4, unit not given): 0.25 | MIC (P. aeruginosa ATCC27853; Pseudomonas aeruginosa, ATCC27853, 18 h, read-out: MICa: MIC of the antibiotic): 16 µM | FICI (P. aeruginosa ATCC27853; strain ATCC27853, antibiotic + D-11 (MICb/MICbc 32/4)): 0.133 | MICac: MIC of the antibiotic in the combination (P. aeruginosa ATCC27853; strain ATCC27853, with D-11 at MICbc 4, unit not given): 0.25 | MIC (P. aeruginosa PA14; Pseudomonas aeruginosa, PA14, 18 h, read-out: MICa: MIC of the antibiotic): > 128 µM | FICI (P. aeruginosa PA14; strain PA14, antibiotic + D-11 (MICb/MICbc 128/4)): 0.039 | MICac: MIC of the antibiotic in the combination (P. aeruginosa PA14; strain PA14, with D-11 at MICbc 4, unit not given): 2 | MIC (P. aeruginosa PAK; Pseudomonas aeruginosa, 18 h, read-out: MICa: MIC of the antibiotic): 16 µM | FICI (P. aeruginosa PAK; strain PAK, antibiotic + D-11 (MICb/MICbc 64/4)): 0.078 | MICac: MIC of the antibiotic in the combination (P. aeruginosa PAK; strain PAK, with D-11 at MICbc 4, unit not given): 0.25
